Measured values: patent US8088777B2, “Urea derivative” (Shionogi & Co., Ltd., priority 2006, dated 2012)

biological target: T1, human NPY Y5 receptor (Homo sapiens, UniProt Q15761); test: Affinity for NPY Y5 receptor: inhibition of [125I] peptide YY binding to membranes of CHO cells expressing NPY Y5 receptor; settings: [125I] peptide YY 60 pM, 25° C., 2 hours, read-out: 50% inhibitory concentration of the test compound against the specific peptide YY binding (IC50 value)
T1 construct: expressed in transfected cells; membranes used
T1 sequence (Q15761 1-445): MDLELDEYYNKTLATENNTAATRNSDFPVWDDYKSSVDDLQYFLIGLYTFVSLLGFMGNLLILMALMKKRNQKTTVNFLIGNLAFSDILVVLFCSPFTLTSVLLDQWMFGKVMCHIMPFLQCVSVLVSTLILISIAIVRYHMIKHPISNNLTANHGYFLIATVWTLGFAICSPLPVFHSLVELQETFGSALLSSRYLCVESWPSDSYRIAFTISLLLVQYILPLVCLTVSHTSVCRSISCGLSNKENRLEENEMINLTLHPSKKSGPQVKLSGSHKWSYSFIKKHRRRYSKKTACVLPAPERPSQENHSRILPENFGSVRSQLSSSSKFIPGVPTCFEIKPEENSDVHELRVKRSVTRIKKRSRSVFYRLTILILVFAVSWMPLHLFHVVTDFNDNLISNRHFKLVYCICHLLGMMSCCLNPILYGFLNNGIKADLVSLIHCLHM
From the text: cDNA sequence encoding a human NPY Y5 receptor (WO96/16542) was cloned in a vector pME18S (Takebe et al. Mol. Cell. Biol. 8, 8957). The obtained expression vector was transfected into CHO cells as a host by using Lipofect AMINE reagent (Trademark, Gibco BRL Co., Ltd.) according to the instruction […] manual. The cells that stably express NPY Y5 receptor were obtained.
The membranes prepared from the CHO cells expressing NPY Y5 receptor, the compound of the present invention and 30,000 cpm [^125I] peptide YY (60 pM of final concentration: Amersham) were incubated in the assay buffer (20 mM HEPES-Hanks buffer containing 0.1% bovine serum albumin, pH 7.4) at 25° C. for 2 hours, and then the membrane was collected by filtering the mixture through a glassfilter (GF/C) presoaked with 1% polyethyleneimine. After washing with 50 mM Tris-HCl buffer (pH 7.4), radioactivity retained on the filters was quantified with a gamma counter. Nonspecific binding was defined as the amount of radioactivity bound to the membranes after incubation in the presence of 200 nM of peptide YY. The 50% inhibitory concentration of the test compound against the specific peptide YY binding (IC50 value) was calculated (Inui, A. et al. Endocrinology 131, 2090-2096 (1992)).

Row | IC50 [pM] | Compound
1 | 1850 | CCS(=O)(=O)N(C)C1CCC(N(C)C(=O)Nc2ccc3c(c2)oc(=O)n3C(C)C)CC1 (stereo not drawn) [Example II-2]
2 | 320 | CC(C)n1c(=O)oc2cc(NC(=O)N[C@H]3CC[C@H](NS(=O)(=O)C(C)C)CC3)ccc21 [Example II-14]
3 | 550 | CC(C)n1c(=O)oc2cc(NC(=O)N[C@H]3CC[C@H](NS(=O)(=O)C(C)(C)C)CC3)ccc21 [Example II-12]
